Measured values from patent US9809623B2, “α4β7 peptide monomer and dimer antagonists” (Protagonist Therapeutics, Inc., priority 2014, dated 2017).
pIC50: −log10 of the molar value. Like-named read-outs stand apart in the source and are kept apart here. Numbered stars: 1 amine (or outer) side, 2 acyl side, 3 side chain; on linkers, the order of the positions; unused ones are H or OH. Bridge positions count the residues as written; N and C are the ends. Square brackets hold non-standard residues; d marks the D form. Peptide text beside a SMILES is read from it. I, II: the chains in the order shown. Phe(4-tBu) = CC(C)(C)c1ccc(C[C@H](N)C(=O)O)cc1; 2Nal = N[C@@H](Cc1ccc2ccccc2c1)C(=O)O; Diglycolyl = O=C(COCC(=O)[*:2])[*:1]; NMeR = CN[C@@H](CCCNC(=N)N)C(=O)O; hPhe = N[C@@H](CCc1ccccc1)C(=O)O; Aic = NC1(C(=O)O)Cc2ccccc2C1; Pen = CC(C)(S)[C@H](N)C(=O)O; dNMeK = CN[C@H](CCCCN)C(=O)O; βAla = NCCC(=O)O

Key:
rh integrin α4β7 = biological target: T1, rh integrin α4β7 (Homo sapiens, UniProt P13612+P26010); assay: α4β7-MAdCAM Competition ELISA; format: binding; conditions: Table 3-B, Potency (α4β7); range classes; read-out: α4β7 ELISA IC50
T1 construct: purchased R&D Systems 5397-A30
T1 sequence (P13612 34-977 limits assumed): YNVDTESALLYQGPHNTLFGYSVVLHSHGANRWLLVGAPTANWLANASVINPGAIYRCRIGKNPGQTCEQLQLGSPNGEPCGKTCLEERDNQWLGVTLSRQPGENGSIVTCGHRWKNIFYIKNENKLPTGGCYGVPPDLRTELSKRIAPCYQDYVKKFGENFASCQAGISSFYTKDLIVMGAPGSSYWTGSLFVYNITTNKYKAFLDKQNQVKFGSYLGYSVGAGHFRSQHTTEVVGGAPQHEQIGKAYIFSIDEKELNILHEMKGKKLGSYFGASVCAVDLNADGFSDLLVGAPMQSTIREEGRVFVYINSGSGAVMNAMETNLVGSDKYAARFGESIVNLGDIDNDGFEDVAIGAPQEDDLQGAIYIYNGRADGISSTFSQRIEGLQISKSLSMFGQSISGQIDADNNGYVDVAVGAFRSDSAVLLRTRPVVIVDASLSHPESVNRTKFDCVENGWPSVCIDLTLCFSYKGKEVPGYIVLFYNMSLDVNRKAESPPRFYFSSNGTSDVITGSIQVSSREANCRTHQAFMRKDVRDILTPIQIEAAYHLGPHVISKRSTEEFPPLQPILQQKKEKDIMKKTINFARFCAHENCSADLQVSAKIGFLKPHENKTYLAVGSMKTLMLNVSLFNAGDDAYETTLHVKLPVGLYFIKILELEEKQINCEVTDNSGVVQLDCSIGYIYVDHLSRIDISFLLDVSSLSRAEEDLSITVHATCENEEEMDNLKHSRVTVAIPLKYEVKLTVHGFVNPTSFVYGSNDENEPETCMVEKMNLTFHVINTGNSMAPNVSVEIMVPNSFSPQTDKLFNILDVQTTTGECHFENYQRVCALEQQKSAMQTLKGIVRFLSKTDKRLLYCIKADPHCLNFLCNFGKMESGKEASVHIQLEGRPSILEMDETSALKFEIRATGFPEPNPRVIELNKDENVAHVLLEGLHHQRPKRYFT
T1 sequence (P26010 20-723 limits assumed): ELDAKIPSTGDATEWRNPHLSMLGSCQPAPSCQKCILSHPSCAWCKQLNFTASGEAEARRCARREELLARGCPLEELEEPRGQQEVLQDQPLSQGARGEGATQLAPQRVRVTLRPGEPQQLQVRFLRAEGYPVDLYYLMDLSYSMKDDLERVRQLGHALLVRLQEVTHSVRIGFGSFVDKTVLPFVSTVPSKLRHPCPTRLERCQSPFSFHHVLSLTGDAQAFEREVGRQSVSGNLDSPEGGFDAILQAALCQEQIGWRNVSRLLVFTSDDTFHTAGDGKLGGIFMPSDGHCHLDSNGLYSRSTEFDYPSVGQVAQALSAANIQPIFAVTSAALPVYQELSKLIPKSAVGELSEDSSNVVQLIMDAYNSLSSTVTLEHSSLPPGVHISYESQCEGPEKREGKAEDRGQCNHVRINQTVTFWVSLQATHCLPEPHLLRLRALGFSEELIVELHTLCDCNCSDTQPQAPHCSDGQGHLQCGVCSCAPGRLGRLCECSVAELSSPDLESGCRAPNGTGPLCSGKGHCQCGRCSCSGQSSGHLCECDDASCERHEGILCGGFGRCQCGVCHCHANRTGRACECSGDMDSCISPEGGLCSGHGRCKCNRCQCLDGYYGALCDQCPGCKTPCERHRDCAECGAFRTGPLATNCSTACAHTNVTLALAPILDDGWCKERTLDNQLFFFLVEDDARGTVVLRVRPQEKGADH
Method: A nickel coated plate (Pierce #15442) was coated with rh integrin α4β7 (R&D Systems #5397-A30) at 800 ng/well and incubated at room temperature with shaking for 1 hr. The solution was then removed by shaking and blocked with assay buffer (50 mM Tris-HCl pH7.6, 150 mM NaCl, 1 mM MnCl2 or MgCl2, 0.05% Tween-20 and 0.5% BSA) at 250 ul/well. The plate was then incubated at room temperature for 1 hr. Each well was washed 3 times with wash buffer (50 mM Tris-HCl pH7.6, 100 mM NaCl, 1 mM MnCl2 or MgCl2, 0.05% Tween-20). To each well was added 25 ul of a serial dilution (3-fold dilutions in assay buffer) of peptide starting at 20 μM. 25 ul of recombinant human MAdCAM-1 (R&D Systems #6056-MC) was then added to each well at a fixed concentration 20 nM. The final starting peptide concentration was 10 μM, and the final MAdCAM-1 concentration was 10 nM. The plates were then incubated at room temperature for 1 hr to reach binding equilibrium. The wells were then washed three times with wash buffer. 50 ul of mouse anti-human IgG1-HRP (Invitrogen # A10648) diluted in 1:2000 in assay buffer was then added to each well. The wells were incubated at room temperature for 45 min with shaking. The wells were then washed 3 times with wash buffer. 100 ul of 3,3′,5,5′-Tetramethylbenzidine (TMB) were then added to each well and closely observe during development time. The reaction was stopped with 2N H2SO4 and absorbance was read at 450 nm.
TMB is a chromogenic substrate suitable for use in ELISA procedures, which utilize horseradish peroxidase conjugates. This substrate produces a soluble end product that is blue in color and can be read spectrophotometrically at 370 or 655 nm. The reaction maybe stopped with 2 M H2S04, resulting in a yellow solution that is read at 450 nm. Each tablet contains 1 mg of TMB substrate. To prepare TMB Substrate Solution, dissolve one 3,3′,5,5′-tetramethylbenzidine tablet in 1 ml of DMSO and add to 9 ml of 0.05 M Phosphate-Citrate Buffer, pH 5.0. Add 2 μl of fresh 30% hydrogen peroxide (Product No. H 1009) per 10 ml of substrate buffer solution, immediately prior to use.

[1] = Simulated Intestinal Fluid (SIF) Stability Assay; format: in vitro ADME, porcine; conditions: pig, pH 6.5, Table 3-B, > means experiment was stopped at that time and half life was not reached, read-out: Stabilty SIF t1/2
How it was run: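 Intestinal stability: percent peptide remaining over time, by LC-MS/MS peak-area ratio to internal standard, fitted to first-order decay for half-life. Conditions: 22 μM peptide, 1% pancreatin in pH 6.5 blank FASSIF, 37 °C.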

α4β7 = α4β7 (Homo sapiens, UniProt P13612+P26010); assay: α4β7-MAdCAM Cell Adhesion Assay (RPMI 8866 human cells); format: cell-based; design: host or cells: RPMI 8866 human B lymphoblastoid cells; conditions: Table 3-B, Potency (α4β7); range classes; read-out: α4β7 cell (Hu) IC50
Chain of α4β7 (P13612 34-1032): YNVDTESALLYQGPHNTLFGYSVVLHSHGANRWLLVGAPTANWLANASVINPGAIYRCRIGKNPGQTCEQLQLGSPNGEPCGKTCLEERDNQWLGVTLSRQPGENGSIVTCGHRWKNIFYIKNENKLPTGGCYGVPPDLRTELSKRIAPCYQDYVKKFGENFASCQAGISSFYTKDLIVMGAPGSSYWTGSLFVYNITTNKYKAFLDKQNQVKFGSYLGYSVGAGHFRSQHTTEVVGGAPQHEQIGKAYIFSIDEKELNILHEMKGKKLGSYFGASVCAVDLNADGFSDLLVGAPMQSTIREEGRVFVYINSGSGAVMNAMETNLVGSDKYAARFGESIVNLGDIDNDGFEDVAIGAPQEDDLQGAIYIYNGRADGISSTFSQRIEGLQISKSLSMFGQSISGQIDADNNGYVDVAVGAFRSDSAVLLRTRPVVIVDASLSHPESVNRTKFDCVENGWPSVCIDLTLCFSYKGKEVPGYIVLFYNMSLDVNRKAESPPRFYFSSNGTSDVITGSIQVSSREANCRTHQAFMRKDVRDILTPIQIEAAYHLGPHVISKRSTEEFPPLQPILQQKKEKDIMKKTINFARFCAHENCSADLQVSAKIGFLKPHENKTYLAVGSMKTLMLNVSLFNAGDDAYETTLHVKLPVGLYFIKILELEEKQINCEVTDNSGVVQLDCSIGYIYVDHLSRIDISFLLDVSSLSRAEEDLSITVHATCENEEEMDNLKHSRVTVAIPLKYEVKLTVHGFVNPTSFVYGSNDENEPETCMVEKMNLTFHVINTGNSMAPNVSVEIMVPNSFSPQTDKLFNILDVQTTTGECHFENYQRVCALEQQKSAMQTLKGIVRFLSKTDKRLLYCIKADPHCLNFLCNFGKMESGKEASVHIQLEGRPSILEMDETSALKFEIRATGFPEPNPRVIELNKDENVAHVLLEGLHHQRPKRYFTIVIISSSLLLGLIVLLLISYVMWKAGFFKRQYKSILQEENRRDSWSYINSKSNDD
Chain of α4β7 (P26010 20-798): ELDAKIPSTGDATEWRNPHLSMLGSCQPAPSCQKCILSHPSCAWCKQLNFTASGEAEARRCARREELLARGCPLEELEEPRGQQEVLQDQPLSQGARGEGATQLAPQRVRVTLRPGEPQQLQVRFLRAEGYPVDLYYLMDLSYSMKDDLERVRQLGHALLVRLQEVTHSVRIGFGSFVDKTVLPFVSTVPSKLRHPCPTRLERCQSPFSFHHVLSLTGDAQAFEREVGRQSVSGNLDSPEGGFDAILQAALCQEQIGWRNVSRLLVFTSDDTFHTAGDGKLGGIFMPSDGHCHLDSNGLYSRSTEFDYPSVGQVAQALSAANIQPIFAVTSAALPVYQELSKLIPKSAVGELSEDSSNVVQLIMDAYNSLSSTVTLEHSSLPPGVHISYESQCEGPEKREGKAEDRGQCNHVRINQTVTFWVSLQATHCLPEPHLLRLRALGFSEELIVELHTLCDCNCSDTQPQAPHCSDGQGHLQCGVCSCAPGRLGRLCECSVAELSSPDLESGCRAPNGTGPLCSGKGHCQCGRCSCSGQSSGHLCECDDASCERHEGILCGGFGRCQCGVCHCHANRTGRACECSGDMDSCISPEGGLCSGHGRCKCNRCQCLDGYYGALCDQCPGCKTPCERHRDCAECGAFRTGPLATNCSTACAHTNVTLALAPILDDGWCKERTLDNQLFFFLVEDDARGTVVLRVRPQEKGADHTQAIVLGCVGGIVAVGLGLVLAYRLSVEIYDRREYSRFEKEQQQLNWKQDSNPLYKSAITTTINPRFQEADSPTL
How it was run: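 Adhesion read-out: MTT absorbance at 570 nm minus no-cell wells, after three washes. Plates coated with rh MAdCAM-1/Fc received peptide dilutions plus 200,000 RPMI 8866 cells in Mn2+ (1 mM)-supplemented DMEM, 0.1% BSA, HEPES pH 7, incubated 30-45 min, 37 °C.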

[2] = simulated intestinal fluid (SIF) with 1% porcine pancreatin
[3] = simulated intestinal fluid (SIF) with porcine pancreatin

| SMILES | pIC50 (rh integrin α4β7) | half-life at 22 μM [1, 2] [h] | pIC50 (α4β7) | half-life at 22 μM [1, 3] [h] |
| --- | --- | --- | --- | --- |
| CC(=O)N[C@@H]1C(=O)N(C)[C@@H](CCCNC(=N)N)C(=O)N[C@@H](CO)C(=O)N[C@@H](CC(=O)O)C(=O)N[C@@H]([C@@H](C)O)C(=O)N[C@@H](CC(C)C)C(=O)N[C@H](C(=O)N[C@@H](Cc2c[nH]c3ccccc23)C(=O)NC2(C(=O)N[C@H](CCCCN)C(N)=O)Cc3ccccc3C2)C(C)(C)SSC1(C)C [compound 51] (Ac-[Pen][NMeR]SDTL[Pen]W[Aic][dK]-NH2; disulfide 1-7) | 7.30 to 7.60 | 3 |  |  |
| CC(=O)N[C@@H]1C(=O)N(C)[C@@H](CCCNC(=N)N)C(=O)N[C@H](CC(=O)O)C(=O)N[C@@H](CC(=O)O)C(=O)N[C@@H]([C@@H](C)O)C(=O)N[C@@H](CC(C)C)C(=O)N[C@H](C(=O)N[C@@H](Cc2c[nH]c3ccccc23)C(=O)N[C@@H](CCC(=O)O)C(=O)N[C@H](CCCCN)C(N)=O)C(C)(C)SSC1(C)C [compound 48] (Ac-[Pen][NMeR][dD]DTL[Pen]WE[dK]-NH2; disulfide 1-7) | 5.00 to 6.00 | > 3 |  |  |
| CC(=O)N[C@@H]1C(=O)N(C)[C@@H](CCCNC(=N)N)C(=O)N[C@@H](CO)C(=O)N[C@@H](CC(=O)O)C(=O)N[C@@H]([C@@H](C)O)C(=O)N[C@@H](CC(C)C)C(=O)N[C@H](C(=O)N[C@@H](Cc2ccc3ccccc3c2)C(=O)N[C@@H](CCc2ccccc2)C(=O)N[C@H](CCCCN)C(N)=O)C(C)(C)SSC1(C)C [compound 50] (Ac-[Pen][NMeR]SDTL[Pen][2Nal][hPhe][dK]-NH2; disulfide 1-7) | 7.60 to 8.00 | 1.73 |  |  |
| CC(=O)N[C@@H]1C(=O)N(C)[C@@H](CCCNC(=N)N)C(=O)N[C@@H](CO)C(=O)N[C@@H](CC(=O)O)C(=O)N[C@@H]([C@@H](C)O)C(=O)N[C@@H](CC(C)C)C(=O)N[C@H](C(=O)N[C@@H](Cc2c[nH]c3ccccc23)C(=O)N[C@@H](CCC(=O)O)C(=O)N2CCC[C@H]2C(=O)N[C@H](CCCCN)C(N)=O)C(C)(C)SSC1(C)C [compound 49] (Ac-[Pen][NMeR]SDTL[Pen]WEP[dK]-NH2; disulfide 1-7) | 7.60 to 8.00 | > 3 |  |  |
| CC(=O)N[C@@H]1C(=O)N(C)[C@@H](CCCNC(=N)N)C(=O)N[C@@H](CO)C(=O)N[C@@H](CC(=O)O)C(=O)N[C@@H]([C@@H](C)O)C(=O)N[C@@H](CC(C)C)C(=O)N[C@H](C(=O)N[C@@H](CCc2ccccc2)C(=O)N[C@H](CCC(=O)O)C(=O)N[C@H](CCCCNC(=O)COCC(=O)NCCCC[C@@H](NC(=O)[C@@H](CCC(=O)O)NC(=O)[C@H](CCc2ccccc2)NC(=O)[C@H]2NC(=O)[C@H](CC(C)C)NC(=O)[C@H]([C@@H](C)O)NC(=O)[C@H](CC(=O)O)NC(=O)[C@H](CO)NC(=O)[C@H](CCCNC(=N)N)N(C)C(=O)[C@@H](NC(C)=O)C(C)(C)SSC2(C)C)C(N)=O)C(N)=O)C(C)(C)SSC1(C)C [compound 40] (I: Ac-[Pen][NMeR]SDTL[Pen][hPhe][dE][dK]-NH2 / II: Ac-[Pen][NMeR]SDTL[Pen][hPhe][dE][dK]-NH2; disulfide I:1-I:7, II:1-II:7; linker I:10-II:10 via Diglycolyl) | > 8.00 |  | 6.30 to 7.00 |  |
| CC(=O)N[C@@H]1C(=O)N(C)[C@@H](CCCNC(=N)N)C(=O)N[C@@H](CO)C(=O)N[C@@H](CC(=O)O)C(=O)N[C@@H]([C@@H](C)O)C(=O)N[C@@H](CC(C)C)C(=O)N[C@H](C(=O)N[C@@H](Cc2ccc3ccccc3c2)C(=O)N[C@H](CCC(=O)O)C(=O)N(C)[C@H](CCCCN)C(N)=O)C(C)(C)SSC1(C)C [compound 13] (Ac-[Pen][NMeR]SDTL[Pen][2Nal][dE][dNMeK]-NH2; disulfide 1-7) | 7.60 to 8.00 |  | 6.30 to 7.00 |  |
| CC(C)C[C@@H]1NC(=O)[C@H]([C@@H](C)O)NC(=O)[C@H](CC(=O)O)NC(=O)[C@H](CO)NC(=O)[C@H](CCCNC(=N)N)N(C)C(=O)[C@@H](NC(=O)CCN)C(C)(C)SSC(C)(C)[C@@H](C(=O)N[C@@H](Cc2c[nH]c3ccccc23)C(=O)N[C@H](CCC(=O)O)C(N)=O)NC1=O [compound 53] (H-[βAla][Pen][NMeR]SDTL[Pen]W[dE]-NH2; disulfide 2-8) | 7.60 to 8.00 |  |  | > 3 |
| CC(=O)N[C@@H]1C(=O)N(C)[C@@H](CCCNC(=N)N)C(=O)N[C@@H](CO)C(=O)N[C@@H](CC(=O)O)C(=O)N[C@@H]([C@@H](C)O)C(=O)N[C@@H](CC(C)C)C(=O)N[C@H](C(=O)N[C@@H](Cc2ccc3ccccc3c2)C(=O)N[C@H](CCC(=O)O)C(=O)N[C@H](CCCCNC(=O)COCC(=O)NCCCC[C@@H](NC(=O)[C@@H](CCC(=O)O)NC(=O)[C@H](Cc2ccc3ccccc3c2)NC(=O)[C@H]2NC(=O)[C@H](CC(C)C)NC(=O)[C@H]([C@@H](C)O)NC(=O)[C@H](CC(=O)O)NC(=O)[C@H](CO)NC(=O)[C@H](CCCNC(=N)N)N(C)C(=O)[C@@H](NC(C)=O)C(C)(C)SSC2(C)C)C(N)=O)C(N)=O)C(C)(C)SSC1(C)C [compound 29] (I: Ac-[Pen][NMeR]SDTL[Pen][2Nal][dE][dK]-NH2 / II: Ac-[Pen][NMeR]SDTL[Pen][2Nal][dE][dK]-NH2; disulfide I:1-I:7, II:1-II:7; linker I:10-II:10 via Diglycolyl) | > 8.00 | > 3 | 7.60 to 8.00 |  |
| CC(C)C[C@@H]1NC(=O)[C@H]([C@@H](C)O)NC(=O)[C@H](CC(=O)O)NC(=O)[C@H](CO)NC(=O)[C@H](CCCNC(=N)N)N(C)C(=O)[C@@H](NC(=O)CCN)C(C)(C)SSC(C)(C)[C@@H](C(=O)N[C@@H](Cc2c[nH]c3ccccc23)C(=O)N[C@@H](CCC(=O)O)C(N)=O)NC1=O [compound 52] (H-[βAla][Pen][NMeR]SDTL[Pen]WE-NH2; disulfide 2-8) | 7.60 to 8.00 |  | 6.30 to 7.00 | 1.95 |
| CC(=O)N[C@@H]1C(=O)N(C)[C@@H](CCCNC(=N)N)C(=O)N[C@@H](CO)C(=O)N[C@@H](CC(=O)O)C(=O)N[C@@H](CC(=O)O)C(=O)N[C@@H](CC(C)C)C(=O)N[C@H](C(=O)N[C@@H](Cc2c[nH]c3ccccc23)C(=O)N[C@@H](CCC(=O)O)C(=O)N[C@H](CCCCN)C(N)=O)C(C)(C)SSC1(C)C [compound 46] (Ac-[Pen][NMeR]SDDL[Pen]WE[dK]-NH2; disulfide 1-7) | 5.00 to 6.00 | > 3 |  |  |
| CC(=O)N[C@@H]1C(=O)N(C)[C@@H](CCCNC(=N)N)C(=O)N[C@@H](CO)C(=O)N[C@@H](CC(=O)O)C(=O)N[C@@H]([C@@H](C)O)C(=O)N[C@@H](CC(C)C)C(=O)N[C@H](C(=O)N[C@@H](Cc2ccc(C(C)(C)C)cc2)C(=O)O)C(C)(C)SSC1(C)C [compound 151] (Ac-[Pen][NMeR]SDTL[Pen][Phe(4-tBu)]-OH; disulfide 1-7) | 7.60 to 8.00 | 3.12 | 7.00 to 7.30 |  |
